The text below walks through data of ChEMBL document CHEMBL1154964, “Acidic elements in histamine H(3) receptor antagonists” (Bioorg Med Chem Lett, 2010).

pEC50, pKi: −log10 of the molar value.

Chain of Histamine H3 receptor (Q9Y5N1 whole entry): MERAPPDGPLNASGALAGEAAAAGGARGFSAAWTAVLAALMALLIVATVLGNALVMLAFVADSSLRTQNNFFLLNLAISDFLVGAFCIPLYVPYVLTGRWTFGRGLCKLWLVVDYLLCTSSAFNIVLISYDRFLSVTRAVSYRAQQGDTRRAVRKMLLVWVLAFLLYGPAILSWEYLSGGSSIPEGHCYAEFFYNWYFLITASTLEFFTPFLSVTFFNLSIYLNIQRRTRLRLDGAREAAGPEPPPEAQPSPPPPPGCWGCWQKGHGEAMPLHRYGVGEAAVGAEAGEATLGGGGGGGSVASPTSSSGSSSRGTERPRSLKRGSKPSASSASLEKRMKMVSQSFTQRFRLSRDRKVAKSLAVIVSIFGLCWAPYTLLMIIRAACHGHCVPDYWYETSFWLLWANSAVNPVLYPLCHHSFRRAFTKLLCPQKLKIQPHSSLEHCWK

One test addresses Histamine H3 receptor (Homo sapiens, UniProt Q9Y5N1). As to the kind of experiment: Displacement of [125I]Iodoproxyfan from human histamine H3 receptor expressed in HEK293 cells after 60 mins by scintillation counting. Type of test: cell-based. On the technique in general: In a radioligand displacement assay an active substance lowers the binding of a labelled ligand.
As usually defined, the pKi is the Ki on a negative log10 scale, so that one unit is a factor of ten. `O=C(O)c1cn(C2CC2)c2cc(N3CCN(Cc4ccc(OCCCN5CCCCC5)cc4)CC3)c(F)cc2c1=O` showed a pKi of 8.70.

Regarding `O=C1NC(=O)C(Cc2ccc(OCCCN3CCCCC3)cc2)S1` (centres undefined), the pKi was 7.30.

Molecule `O=C1NC(=O)/C(=C/c2ccc(OCCCN3CCCCC3)cc2)S1` showed a pKi of 8.10.

Take `O=C1NC(=S)S/C1=C\c1ccc(OCCCN2CCCCC2)cc1`: the pKi is 8.30.

`c1cc(C2=NCCN2)ccc1OCCCN1CCCCC1` gave a pKi of 8.10.

For the molecule `O=C(O)C1CSC(c2ccc(OCCCN3CCCCC3)cc2)N1` (centres undefined), the pKi is 8.00.

As for `COC(=O)C1CSC(c2ccc(OCCCN3CCCCC3)cc2)N1` (centres undefined), the pKi is 8.40.

`CN(CCC=C1c2ccccc2CCc2ccccc21)Cc1ccc(OCCCN2CCCCC2)cc1`: the pKi is 9.50.

The target of the next test is T1, Peroxisome proliferator-activated receptor alpha (Homo sapiens, UniProt Q07869).
T1 sequence (Q07869 whole entry): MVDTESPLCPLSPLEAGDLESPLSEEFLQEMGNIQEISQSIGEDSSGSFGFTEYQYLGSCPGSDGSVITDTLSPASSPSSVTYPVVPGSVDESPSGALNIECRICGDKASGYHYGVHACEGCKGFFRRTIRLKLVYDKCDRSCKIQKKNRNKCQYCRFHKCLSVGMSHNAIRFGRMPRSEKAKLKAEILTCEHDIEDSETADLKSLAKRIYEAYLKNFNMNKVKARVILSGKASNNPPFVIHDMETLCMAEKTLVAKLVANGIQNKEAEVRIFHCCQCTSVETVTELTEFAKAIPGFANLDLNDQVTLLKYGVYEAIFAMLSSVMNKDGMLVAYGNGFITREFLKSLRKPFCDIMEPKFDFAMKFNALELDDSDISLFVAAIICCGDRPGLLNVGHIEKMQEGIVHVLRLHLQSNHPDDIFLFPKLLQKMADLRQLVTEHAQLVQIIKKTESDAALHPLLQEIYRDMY
As to the kind of experiment: Agonist activity at human recombinant PPARalpha LBD expressed in african green monkey COS7 cells coexpressing GAL4 by luciferase reporter gene transactivation assay. The format is functional, cell-based, COS-7.
In general, pEC50 refers to −log10 of the EC50, conventionally taken in molar units. Regarding `O=C1NC(=S)S/C1=C\c1ccc(OCCCN2CCCCC2)cc1`, the pEC50 is < 5.00.
